Laboratory results reported in patent publication US5786386A, “Antibacterial and fungicidal agent” (Takasago International Corporation, priority 1995, dated 1998).

Key:
Type in all cases: in vivo
Hartley guinea pigs [1] = assay: Test Example 3 (safety test), photo-toxicity; settings: 1 wt % solution in acetone; light source FL-40S.BLB (300-400 nm); female guinea pigs
Protocol: Test Example 3 (safety test)
(§1) Five (5) or ten (10) Hartley guinea pigs (female, body weight: 350-400 g) are used. A 1 wt % solution of each test compound in acetone was prepared, and the solution was tested with respect to its sensitizing potential, primary stimulation to the skin, and photo-toxicity.
As test compounds, three compounds, i.e., compound Nos. 1, 10, and 14 in Table 1, were used.
The positive control compound used for the photo-toxicity was an ethanol solution containing 100 ppm of 8-methoxypsoralen (product of Aldrich). The light source used was FL-40S.BLB (300-400 nm; manufactured by Toshiba).

Hartley guinea pigs [2] = assay: Test Example 3 (safety test), sensitization, maximization method; settings: 1 wt % solution in acetone; induction at 10 wt %; female guinea pigs
Protocol: Test Example 3 (safety test) Method Five (5) or ten (10) Hartley guinea pigs (female, body weight: 350-400 g) are used. A 1 wt % solution of each test compound in acetone was prepared, and the solution was tested with respect to its sensitizing potential, primary stimulation to the skin, and photo-toxicity. As test compounds, three compounds, i.e., compound Nos. 1, 10, and 14 in Table 1, were used. The sensitization test was performed in accordance with the maximization method proposed by Magnusson [Magnusson, B and Kligman, A.M.,; "The identification of contact allergens by animal assay. The guinea pig maximization test" (J. Inv. Derm., 52, p268-276 (1969))]. The induction of sensitization was performed at a concentration of 10 wt %.

Hartley guinea pigs [3] = assay: Test Example 3 (safety test), primary stimulation to the skin; settings: 1 wt % solution in acetone; female guinea pigs
Protocol: as §1, with “Test Example 3 (safety test) Method Five” for “Five”, “photo-toxicity. As test compounds, three compounds, i.e., compound Nos. 1, 10, and 14 in Table 1, were used.” for “photo-toxicity.”

For `CCCCCCCCCCCCNCc1ccc(OC)c(O)c1` [Compound No. 10, N-lauryl-3-hydroxy-4-methoxybenzylamine], the Photo-toxicity (Hartley guinea pigs [1]) was 0/5, the Sensitization (Hartley guinea pigs [2]) was 0/10 and the Primary stimulation (Hartley guinea pigs [3]) was 0/5.

In the case of `CCCCCCCCCCCCNCc1ccc2c(c1)OCO2` [Compound No. 1], the Photo-toxicity (Hartley guinea pigs [1]) is reported as 0/5, the Sensitization (Hartley guinea pigs [2]) is reported as 0/10 and the Primary stimulation (Hartley guinea pigs [3]) is reported as 0/5.

For `CCCCCCCCCCCCN(C)Cc1cc(OC)c(OC)cc1OC` [Compound No. 14], the Photo-toxicity (Hartley guinea pigs [1]) was 0/5, the Sensitization (Hartley guinea pigs [2]) was 0/10 and the Primary stimulation (Hartley guinea pigs [3]) was 0/5.
